Reference: the NIST ThermoML archive (doi:10.1021/je900137r)
Numbers after ± are expanded uncertainties.

Experiments:
[1] = Crystal; Adiabatic calorimetry
[2] = Molar enthalpy of transition or fusion; conditions: Crystal; Adiabatic calorimetry

Triple point temperature [1]: 85.53 ± 0.039 K | Molar enthalpy of transition or fusion [2]: 0.838 ± 0.00956 kcal/mol
SMILES: CCC [propane]
